Laboratory results from ChEMBL document CHEMBL1150158, “Lyngbyastatin 1 and Ibu-epilyngbyastatin 1: synthesis, stereochemistry, and NMR line broadening” (J Nat Prod, 2002).
In brackets after ≈: the same amount, converted by molar mass. Numbered stars: 1 amine (or outer) side, 2 acyl side, 3 side chain; on linkers, the order of the positions; unused ones are H or OH. Square brackets hold non-standard residues; d marks the D form. Peptide text beside a SMILES is read from it. X1 = CC[C@H](C)[C@H](OC(=O)[C@@H](C)[C@@H](CC)N[*:1])C(=O)[*:2]; X3 = C[C@@H](N[*:1])C(=O)C(C)(C)C(=O)[*:2]; X2 = C[C@H](N[*:1])C(=O)C(C)(C)C(=O)[*:2]; NMeY = CN[C@@H](Cc1ccc(O)cc1)C(=O)O; NMeL = CN[C@@H](CC(C)C)C(=O)O; NMeV = CN[C@H](C(=O)O)C(C)C

Columns and labels:
NCI-H460 = assay: Growth inhibition of human NCI-H460 cells; format: functional
DU-145 = assay: Growth inhibition of human DU145 cells; format: functional
[1] = Induction of rabbit muscle actin polymerization after 1 hr; parameters: species or system Oryctolagus cuniculus, Muscle tissue

| SMILES | GI50 (NCI-H460) [µg/mL] | GI50 (DU-145) [µg/mL] | EC50 [1] [µM] |
| --- | --- | --- | --- |
| CC[C@H](C)[C@@H]1OC(=O)[C@@H](C)[C@@H](CC)NC(=O)[C@H](C)NC(=O)C(C)(C)C(=O)[C@@H](C)NC(=O)[C@H](Cc2ccc(OC)cc2)N(C)C(=O)[C@H](C(C)C)N(C)C(=O)CNC(=O)[C@H](CC(C)C)N(C)C(=O)CNC1=O (cyclo(A[X1]G[NMeL]G[NMeV][NMeY](Me)[X3])) | 0.031 (≈ 0.0315 µM) | 0.24 (≈ 0.244 µM) | – |
| CC[C@H](C)[C@@H]1OC(=O)[C@@H](C)[C@@H](CC)NC(=O)[C@H](C)NC(=O)C(C)(C)C(=O)[C@H](C)NC(=O)[C@H](Cc2ccc(OC)cc2)N(C)C(=O)[C@H](C(C)C)N(C)C(=O)CNC(=O)[C@H](CC(C)C)N(C)C(=O)CNC1=O [DOLASTATIN 11] (cyclo(A[X1]G[NMeL]G[NMeV][NMeY](Me)[X2])) | 0.0013 (≈ 0.00132 µM) | 0.22 (≈ 0.223 µM) | 9.5 |
